For orientation: GI50 means the concentration giving 50% growth inhibition. Read a low GI50 as more potent growth inhibition.

For 61 compounds, GI50 results are on record in ChEMBL document CHEMBL1143982, “A comparative molecular field and comparative molecular similarity indices analyses (CoMFA and CoMSIA) of N-phenyl-N'-(2-chloroethyl)ureas targeting the colchicine-binding site as anticancer agents” (2008).

The subject of the first assay is MDA-MB-231. Nature of the assay: Antiproliferative activity against human MDA-MB-231 cells. It is filed as functional.
In the case of `Cc1cccc(NC(=O)NCCCl)c1`, growth was halved (GI50) at 88 µM.

With `CCc1cccc(NC(=O)NCCCl)c1`, the GI50 came out at 16 µM.

As to `CCCCCCCCc1ccc(NC(=O)NCCCl)cc1`, the 50% growth inhibitory concentration (GI50) was 48 µM.

`Cc1cc(C)c(NC(=O)NCCCl)c(C)c1` registered a GI50 of 587 µM.

For the compound `O=C(NCCCl)Nc1cccc2ccccc12`, the GI50 came to 220 µM.

For the compound `CCCCCCCCCCCc1ccc(NC(=O)NCCCl)cc1`, growth was halved (GI50) at 587 µM.

The compound `CCc1ccccc1NC(=O)NCCCl` yielded a GI50 of 400 µM.

For another assay, the system named is HT-29. Description: Antiproliferative activity against human HT29 cells. In kind it is functional.
Consider `O=C(NCCCl)Nc1ccc2ccccc2c1`, for which the concentration for 50% growth inhibition (GI50) was found to be 5.5 µM.

With `CC(C)c1ccc(NC(=O)N[C@@H](C)CCl)cc1`, the GI50 was 69 µM.

In turn, `O=C(NCCCl)Nc1ccc(I)cc1` registered a GI50 of 3.9 µM.

As to `Cc1cc(C)cc(NC(=O)NCCCl)c1`, the GI50 was 20 µM.

With `C[C@@H](CCl)NC(=O)Nc1ccc(C(C)(C)C)cc1`, the GI50 turned out to be 55 µM.

On to `C[C@@H](CCl)NC(=O)Nc1ccc2c(c1)CCC2`, for which the GI50 came out at 100 µM.

Turning to `CCNC(=O)Nc1ccc(C(C)(C)C)cc1`, the GI50 worked out at 83 µM.

`CC(C)(C)c1ccc(NC(=O)NCCCCl)cc1` registered a 50% growth inhibitory concentration (GI50) of 21 µM.

In turn, `CCNC(=O)Nc1ccc(C(C)CC)cc1` (stereo unspecified) showed a GI50 of 132 µM.

`CC(C)c1ccc(NC(=O)N[C@H](C)CCl)cc1` displayed a GI50 of 1.1 µM.

Consider `C[C@@H](CCl)NC(=O)Nc1ccc2ccccc2c1`, for which the GI50 amounted to 181 µM.

`O=C(NCCCl)Nc1ccc2[nH]ncc2c1` registered a GI50 of 48 µM.

In turn, `CCCCc1ccc(NC(=O)NCCCl)cc1` yielded a GI50 of 22 µM.

Regarding `O=C(NCCCl)Nc1ccc2c(c1)-c1ccccc1C2`, the GI50 turned out to be 13 µM.

Consider `CCCc1ccc(NC(=O)NCCCl)cc1`, for which the GI50 amounted to 23 µM.

`CNC(=O)Nc1ccc(C(C)(C)C)cc1` gave a GI50 of 400 µM.

With `CC(C)c1ccc(NC(=O)NCCCl)cc1`, the GI50 is 5 µM.

The compound `C[C@H](CCl)NC(=O)Nc1ccc2c(c1)-c1ccccc1C2` had a GI50 of 6.6 µM.

As to `CCCNC(=O)Nc1ccc(C(C)CC)cc1` (stereo unspecified), the GI50 was 133 µM.

As to `CC[C@@H](CCl)NC(=O)Nc1ccc(I)cc1`, the GI50 was determined as 51 µM.

`CCC(C)c1ccc(NC(=O)N[C@@H](CC)CCl)cc1` (stereo partly specified): the GI50 worked out at 109 µM.

Take `CCC(C)c1ccc(NC(=O)NC)cc1` (stereo unspecified): the concentration for 50% growth inhibition (GI50) turned out to be 400 µM.

With `O=C(NCCCl)Nc1ccc(Br)cc1`, the GI50 is 9 µM.

Compound `CC(C)(C)Cc1ccc(NC(=O)NCCCl)cc1` had a GI50 of 36 µM.

For the compound `C[C@H](CCl)NC(=O)Nc1ccc(I)cc1`, the GI50 was found to be 0.85 µM.

Regarding `CCNC(=O)Nc1ccc(C(C)C)cc1`, the GI50 came to 400 µM.

Consider `CCc1ccc(NC(=O)NCCCl)cc1`, for which halving of growth (GI50) required 6.4 µM.

Consider `CCCNC(=O)Nc1ccc(C(C)(C)C)cc1`, for which the GI50 stood at 35 µM.

As for `CC[C@H](CCl)NC(=O)Nc1ccc(C(C)(C)C)cc1`, the GI50 worked out at 56 µM.

Consider `CCCNC(=O)Nc1ccc(C(C)C)cc1`, for which the GI50 came to 76 µM.

`CC[C@H](CCl)NC(=O)Nc1ccc(C(C)C)cc1` registered a GI50 of 30 µM.

Compound `O=C(NCCCl)Nc1ccc(Cl)cc1` registered a GI50 of 14 µM.

As to `CCC(C)c1ccc(NC(=O)N[C@@H](C)CCl)cc1` (stereo partly specified), it took 54 µM to inhibit growth by half (GI50).

`O=C(NCCCl)Nc1ccc2c(c1)CCC2`: the GI50 is 10 µM.

In turn, `Cc1ccc(NC(=O)NCCCl)cc1` had a GI50 of 23 µM.

The compound `CC(C)CCc1ccc(NC(=O)NCCCl)cc1` returned a GI50 of 33 µM.

`CC(C)Cc1ccc(NC(=O)NCCCl)cc1` came in with a GI50 of 21 µM.

`C[C@H](CCl)NC(=O)Nc1ccc(C(C)(C)C)cc1` gave a GI50 of 8.9 µM.

`CNC(=O)Nc1ccc(C(C)C)cc1` registered a GI50 of 400 µM.

Regarding `C[C@@H](CCl)NC(=O)Nc1ccc(I)cc1`, the GI50 was 49 µM.

Turning to `O=C(NCCCl)Nc1cccc2c1CCCC2`, the GI50 is 400 µM.

In turn, `CCC(C)c1ccc(NC(=O)N[C@H](C)CCl)cc1` (stereo partly specified) showed a GI50 of 8.9 µM.

`Cc1ccc(NC(=O)NCCCl)cc1C` displayed a concentration for 50% growth inhibition (GI50) of 5.4 µM.

As for `CC[C@H](CCl)NC(=O)Nc1ccc(I)cc1`, growth was halved (GI50) at 22 µM.

On to `CC(C)(C)c1ccc(NC(=O)NCCCl)cc1`, for which growth was halved (GI50) at 9.1 µM.

Take `CCC(C)c1ccc(NC(=O)N[C@H](CC)CCl)cc1` (stereo partly specified): the GI50 stood at 56 µM.

As for `C[C@@H](CCl)NC(=O)Nc1ccc2c(c1)-c1ccccc1C2`, the GI50 came to 28 µM.

The compound `C[C@H](CCl)NC(=O)Nc1ccc2ccccc2c1` showed a concentration for 50% growth inhibition (GI50) of 4.9 µM.

On to `CC[C@@H](CCl)NC(=O)Nc1ccc(C(C)(C)C)cc1`, for which halving of growth (GI50) required 109 µM.

Take `CC[C@@H](CCl)NC(=O)Nc1ccc(C(C)C)cc1`: the GI50 came to 54 µM.

For `C[C@H](CCl)NC(=O)Nc1ccc2c(c1)CCC2`, it took 6.4 µM to inhibit growth by half (GI50).

In the case of `CCCCCc1ccc(NC(=O)NCCCl)cc1`, growth was halved (GI50) at 12 µM.

`CCC(C)c1ccc(NC(=O)NCCCl)cc1` (stereo unspecified) returned a GI50 of 3.6 µM.

`CCCCCCc1ccc(NC(=O)NCCCl)cc1` returned a concentration for 50% growth inhibition (GI50) of 12 µM.
